Source: PMC8123395, “Aggregation and Its Influence on the Bioactivities of a Novel Antimicrobial Peptide, Temporin-PF, and Its Analogues” (International Journal of Molecular Sciences, 2021)
No end group written: not given here.

Columns and labels:
S. aureus (NCTC 10788) = assay: SYTOX Green stain uptake assay (membrane permeabilization); format: cell-based; settings: peptide 10 µM, within 120 min, 37 °C, relative to 70% isopropanol-treated cells, three replicates
Experimental: Figure 10 Membrane permeabilization effect of TPF and the analogs (10 µM) on Gram-positive bacteria S. aureus was indicated by the uptake of SYTOX Green dye over 120 min. The error bar represents SD of three replicates.
A membrane permeability assay was conducted on S. aureus (NCTC 10788) and E.coli (NCTC 10418) using the SYTOX™ Green Nucleic Acid Stain (Thermo Fisher Scientific, Waltham, MA, USA) as described previously, with some modifications. For S. aureus, to obtain the fluorescence kinetics of membrane permeabilization, the bacterial suspension and peptide solutions, prepared in 5% tryptic soy broth (TSB) (v/v) in 0.85% NaCl solution (m/v), were mixed to give a final concentration at 10 µM in a black 96-well plate, and further incubated for 120 min at 37 °C. Subsequently, 5 µM SYTOX Green nucleic acid stain was added into each well and immediately detected by a fluorescent plate reader with excitation of 485 nm and emission of 528 nm. The total permeabilized cells of S. aureus were prepared by treating with 70% isopropanol and further resuspended in 5% TSB/0.85% NaCl solution after washing.

[1] = Observation of aggregation: turbidity (absorbance at 600 nm) in media and salt solutions; format: physicochemical; settings: peptide 1 mg/mL; 0.25, 0.5 and 1 M Na2HPO4, CaCl2 or MgCl2; absorbance 600 nm
Experimental: Figure 3 The absorbance of TPF and the analogs prepared in (a) a series of culture media, including PBS, RPMI1640, RPMI1640 with 10% FBS, TSB, and MHB; 0.25, 0.5, and 1 M of (b) Na2HPO4, (c) CaCl2, and (d) MgCl2 solutions. Peptide solutions were prepared from 1 mg/mL, and the wavelength was set as 600 nm. The error bar represents the standard deviation (SD) with three replicates.
The method was followed the previous study with modifications. The purified peptides were prepared at 10 mg/mL in water and subsequently diluted with different solutions, including PBS, RPMI1640, RPMI1640 with 10% FBS, TSB, MHB, Na2HPO4 (0.25, 0.5, and 1 M), CaCl2 (0.25, 0.5, and 1 M), and MgCl2 (0.25, 0.5, and 1 M), in a 96-well plate to achieve the final concentration of 1 mg/mL. The turbidity of each well was detected using the absorbance at 600 nm by a plate reader. The peptides dissolved in water were applied as negative control.

[2] = RP-HPLC retention order of mixed peptides (overall hydrophobicity); format: physicochemical; settings: peptides mixed in equal ratio and subjected to RP-HPLC; Supplementary Figure S4
Experimental: All peptides were chemically synthesized and purified by RP-HPLC. They were further mixed with an equal ratio and subjected to RP-HPLC. […] Subsequently, all peptides (1 mg/mL) were dissolved in a series of widely used culture media (Figure 2).
N-terminal Phe of temporin was believed to participate in the packaging of “head-tail” oligomerization. […] Furthermore, Trp/D-Trp substitution carried out on des-Phe1 TPF enhanced the peptide aggregation. […] It may be related to the decrease of the helical content; however, it could also be caused by the change of aggregation effects. Previous studies have shown that AMPs with strong antimicrobial activity are present as monomers in an aqueous solution and aggregate on the membrane to disrupt the bacterial cell membrane. […] It has been proposed that some aggregation effects of AMPs could limit the interaction of the peptide with its target, thereby reducing the antibacterial efficacy. In the previous study, the zipper-like motif is associated with the bioactivities as well as the assembly in the LPS micelles, which was considered to arise from hydrophobic interactions mainly. However, the overall hydrophobicity of Trp/D-Trp substituted analogs is less than that of des-Phe1 TPF, as estimated by RP-HPLC analysis. We hypothesize that the enhanced assembly seen for Trp/D-Trp substituted analogs might be related to the increased content of aromatic residues, because it could promote the strength of π stacking or cation-π type interaction. However, the true relation has not been fully clarified so far, and the capability of aromatic moieties to promote aggregation could also be affected by the hydrophobicity, position, and the neighboring side chains in their three-dimensional conformation.

[3] = Circular dichroism, helix content by BeStSel; format: physicochemical; settings: CD, room temperature, BeStSel analysis
Experimental: Figure 8 CD spectra of TPF and the analogs (50 μM) prepared in 10 mM NH4AC, 50% TFE/10 mM NH4AC, 3 mM DPPG/DPPE (88:12) SUVs, and 3 mM DPPC SUVs. The spectra were averaged over three consecutive scans, and the solvent CD signal was subtracted.
The determination of the secondary structure of peptides was conducted using a JASCO J-815 CD Spectropolarimeter (JASCO Inc., Tokyo, Japan) as described in the previous study. Then, 50 μM of each peptide sample was prepared in the aqueous 10 mM ammonium acetate (NH4Ac; Sigma-Aldrich, Gillingham, UK) buffer, 50% (v/v) 2,2,2-trifluoroethanol (TFE; Sigma-Aldrich, Gillingham, UK), and 3 mM DPPG:DPPE (88:12) and DPPC small unilamellar liposomes/vesicles (SUVs) that were used to mimic the bacterial and mammalian erythrocyte cell membranes, respectively. The liposome was hydrated in deionized water and then sonicated for 15 min with an interval 30 s in an ice bath for generating SUVs. Samples were loaded in a 1-mm thickness quartz cuvette and analyzed at room temperature with the following parameters: scan range of 190–250 nm, scanning speed of […], 1 nm bandwidth, and 0.5 nm data pitch. The spectra were obtained by averaging data from three scans. The CD spectra were analyzed by BeStSel (http://bestsel.elte.hu/index.php, accessed on 16 May 2020) for the determination of secondary structure content.

MRSA mature biofilm = format: cell-based; settings: mature biofilm, 48 h
Experimental: (§1) MBIC and MBEC assays were performed as previously described with minor modifications. For the MBIC assay, a suspension of broth diluted bacteria culture (5 × 10^5 CFU/mL) was incubated with the peptide solutions at 37 °C for 24 h. For MBEC assay, 100 μL inoculum culture was seeded to a 96-well-flat-bottom plate and incubated at 37 °C for 48 h to obtain the mature biofilm. Afterwards, the plate was washed by sterile phosphate-buffered saline (PBS; Sigma-Aldrich, Gillingham, UK) twice and treated with a series peptide solution at 37 °C for 24 h. Then, all the plates were washed with PBS and stained by 100 μL 0.1% crystal violet solution (Sigma-Aldrich, Gillingham, UK), and further dissolved by 30% acetic acid (Sigma-Aldrich, Gillingham, UK). The absorbance of each well was recorded by Synergy HT plate reader (Biotech, Minneapolis, MN, USA) at 595 nm.

S. aureus mature biofilm = format: cell-based; settings: mature biofilm, 48 h
Experimental: as §1

S. aureus biofilm = format: cell-based; settings: biofilm, 24 h
Experimental: as §1

LPLIAGLFGKIF-NH2 [des-Phe1 TPF]
membrane permeabilization (S. aureus (NCTC 10788)): over 50%
aggregation (salting-out) in salt solutions [1]: low degree of capability for aggregation
order of retention time (RP-HPLC, used as estimate of overall hydrophobicity) [2]: TPF> des-Phe1 TPF> W-des-Phe1 TPF> dW-des-Phe1 TPF
Helix Content % DPPC ([3]; 50 μM peptide in 3 mM DPPC SUVs (erythrocyte membrane mimic)): 16.4%
Helix Content % DPPG/DPPE ([3]; 50 μM peptide in 3 mM DPPG/DPPE (88:12) SUVs (bacterial membrane mimic)): 26.7%
Helix Content % 50% TFE ([3]; 50 μM peptide in 50% TFE/10 mM NH4AC, three scans averaged): 37.7%
MBEC (MRSA mature biofilm): 32/32 µM
MBEC (S. aureus mature biofilm): 32 µM
MBIC (S. aureus biofilm): 16 µM
